Data published in patent US20060057230A1, “Tea polyphenols bioavailability enhancement method” (priority 2004, published 2006).
Values joined by “and” are separate entries in the source; they are usually repeats but may differ in a detail not shown here. Equal entries are not always repeated. Where two headings read alike, the source gives them in different places. One block for each compound: values may come before it.

Assays:
[1] = Plasma free catechin pharmacokinetics after oral Polyphenon E, fasting/fed cross-over; format: in vivo, human; conditions: for EGCG AUC / EGCG Cmax: oral Polyphenon E 1200 mg dose level
Description: Study Design. […] Breakfast consisted of one or two 4-oz muffins.
Sample Collection and Processing. […] The total volume of each urine sample was measured.
Tea Polyphenol Concentration Measurements.
This assay employed a gradient of two mobile phases. […] The flow rate was maintained at 1 ml/min.
The distribution of pharmacokinetic parameter data was normalized by logarithmic transformation prior to statistical analyses. The primary analyses were to determine whether the pharmacokinetics of tea catechins are different under fasting/fed states. Pharmacokinetic parameters such as AUC, Cmax, Tmax, half-life, CL/F, Vd/F, and total amount excreted over 24 hr between the fasting and fed conditions were compared by standard cross-over statistical analyses. The pkcross routine in Stata 8.0 (StataCorp 2003) was used. […] A p<0.05 was considered statistically significant. In secondary analysis, EGCG pharmacokinetic parameters such as CL/F, Vd/F, dose normalized AUC, and dose normalized Cmax were compared among different dose levels using one-way analysis of variance followed by post-hoc t-tests corrected for multiple comparisons. For the post-hoc t-test, a p<0.0167 was considered statistically significant.

[2] = Plasma total (free and conjugated) catechin Cmax after β-glucuronidase and sulfatase treatment; conditions: for form mostly present in plasma: comparing total and free catechin Cmax
Description: (§1) During the initial clinic visit, study participants completed a medical history form and underwent a brief physical examination. A fasting blood was collected and subjected to a complete blood count with differential leukocyte count and a comprehensive blood chemistry analysis. Eligible subjects were randomly assigned to one of the Polyphenon E doses (400, 800, and 1200 mg, based on EGCG content) and were required to refrain from the ingestion of tea, apples, chocolate, and their products two weeks prior to the first pharmacokinetic study day and until the end of the second pharmacokinetic study day. The night prior to the first pharmacokinetic study day, subjects fasted after midnight except for water. At approximately either 6 am or 9 am on the morning of the first pharmacokinetic study day, each subject was randomly assigned to receive Polyphenon E at the assigned dose level with or without breakfast. Breakfast consisted of one or two 4-oz muffins.
(§2) Study participants had the option of selecting from three varieties of Otis Spunkmeyer® brand muffins: cheese streusel, wild blueberry, and banana nut flavors. The muffins contain 420 to 480 calories each, with 48-60 grams of carbohydrates, 20-24 grams of fat, and 6 grams of protein. Blood samples were collected prior to and at 0.5, 1, 2, 4, 6, 8, 10, and 24 hours after Polyphenon E administration. Urine samples were collected prior to and up to 24 hours (divided into two intervals: 0-8 and 8-24 hours post-dose) after dosing. Following a one-week wash-out period, study subjects fasted overnight and were crossed-over to receive the same dose of Polyphenon E under the other fasting/fed condition.
(§3) Blood samples were collected into Vacutainer tubes containing sodium heparin. Within 30 minutes of collection, tubes were centrifuged for 10 minutes at 2000 rpm. After centrifugation, plasma was mixed with Vc-EDTA solution (0.4 M NaH2PO4 buffer containing 20% ascorbic acid and 0.1% EDTA, pH 3.6) in the volume ratio of 1:0.02 and stored at −80° C. until sample analysis. Urine specimen container was preadded with 1.38 g NaH2PO4, 1 g ascorbic acid, and 5 mg EDTA to prevent degradation of tea catechins. Urine specimen was kept cold by storing the specimen container in a cooler chest with freezer packs during each collection period. The total volume of each urine sample was measured. An aliquot of urine sample was mixed with the Vc-EDTA solution and stored at −80° C. until sample analysis.
(§4) In brief, for determination of free green tea catechins, plasma or urine samples were extracted with ethyl acetate. The ethyl acetate layer was mixed with a small aliquot of 0.1% ascorbic acid before drying by vacuum centrifugation. The dried residue was re-dissolved in 15% acetonitrile and injected onto HPLC. For determination of the total of free and glucuronic acid/sulfate conjugates of tea catechins, plasma or urine samples were mixed with an aliquot of β-glucuronidase and sulfatase in the presence of ascorbate-EDTA solution. Following pre-treatment, the samples were extracted as described above for the free catechins.
(§5) The HPLC system consisted of an ESA Model 465 refrigerated autosampler, an ESA Model 580 two-pump solvent delivery system, an ESA 5500 coulochem electrode array system (CEAS), and a Supelcosil C18 reversed-phase column (150×4.6 mm; particle size, 5 μm; Supelco Inc., Bellefonte, Pa.). The autosampler and column temperatures were maintained at 6° C. and 35° C., respectively. This assay employed a gradient of two mobile phases. Buffer A consisted of 30 mM NaH2PO4 buffer, acetonitrile, and tetrahydrofuran in the volume ratio of 98.13:1.75:0.12 (pH 3.35). Buffer B consisted of 15 mM NaH2PO4 buffer, acetonitrile, and tetrahydrofuran in the volume ratio of 41.5:58.5:12.5 (pH 3.45). The flow rate was maintained at 1 ml/min. The column was eluted with 96% buffer A and 4% buffer B from 0 to 7 min.

[3] = Total catechin recovered in urine over 24 hours after oral Polyphenon E; format: in vivo, human; conditions: following Polyphenon E administration
Description: Blood samples were collected prior to and at 0.5, 1, 2, 4, 6, 8, 10, and 24 hours after Polyphenon E administration. Urine samples were collected prior to and up to 24 hours (divided into two intervals: 0-8 and 8-24 hours post-dose) after dosing.
Sample Collection and Processing. Blood samples were collected into Vacutainer tubes containing sodium heparin. Within 30 minutes of collection, tubes were centrifuged for 10 minutes at 2000 rpm. After centrifugation, plasma was mixed with Vc-EDTA solution (0.4 M NaH2PO4 buffer containing 20% ascorbic acid and 0.1% EDTA, pH 3.6) in the volume ratio of 1:0.02 and stored at −80° C. until sample analysis. Urine specimen container was preadded with 1.38 g NaH2PO4, 1 g ascorbic acid, and 5 mg EDTA to prevent degradation of tea catechins. Urine specimen was kept cold by storing the specimen container in a cooler chest with freezer packs during each collection period. The total volume of each urine sample was measured. […]
The HPLC system consisted of an ESA Model 465 refrigerated autosampler, an ESA Model 580 two-pump solvent delivery system, an ESA 5500 coulochem electrode array system (CEAS), and a Supelcosil C18 reversed-phase column (150×4.6 mm; particle size, 5 μm; Supelco Inc., Bellefonte, Pa.). […] The eluent was monitored by the CEAS with potential settings at −10, 150, 300, and 500 mV. […]

[4] = in vivo
Description: as §1, §2, §3, §4, §5

[5] = rats; cited from earlier work
[6] = mice; cited from earlier work
[7] = oral Polyphenon E (400 mg EGCG), Fasting
[8] = oral Polyphenon E (400 mg EGCG), Fed
[9] = oral Polyphenon E (800 mg EGCG), Fasting
[10] = oral Polyphenon E (800 mg EGCG), Fed
[11] = oral Polyphenon E (1200 mg EGCG), Fasting
[12] = oral Polyphenon E (1200 mg EGCG), Fed
[13] = oral Polyphenon E 200 mg (so in the source), Fasting
[14] = oral Polyphenon E 200 mg (so in the source), Fed
[15] = oral Polyphenon E 400 mg, Fasting
[16] = oral Polyphenon E 800 mg, Fasting

- free catechin levels in plasma samples ([1]; after oral Polyphenon E): very low or undetectable
- Maximum plasma free catechin concentrations [1, 7]: 5.6 ± 7.8 ng/mL
- Maximum plasma free catechin concentrations [1, 8]: 1.6 ± 3.9 ng/mL
- Maximum plasma free catechin concentrations [1, 9]: 1.92 ± 3.4 ng/mL
- Maximum plasma free catechin concentrations [1, 10]: 2.8 ± 5.0 ng/mL
- Maximum plasma free catechin concentrations [1, 11]: 16.6 ± 30.0 ng/mL
- Maximum plasma free catechin concentrations [1, 12]: 10.1 ± 15.3 ng/mL
- form mostly present in plasma [2]: conjugated forms
Structure (SMILES): Oc1cc(O)c2c(c1)O[C@H](c1ccc(O)c(O)c1)[C@H](O)C2 [EC, epicatechin]

- Maximum plasma free catechin concentrations [1, 7]: 87.6 ± 62 ng/mL
- Maximum plasma free catechin concentrations [1, 8]: 15.7 ± 8.8 ng/mL
- Maximum plasma free catechin concentrations [1, 9]: 174 ± 141 ng/mL
- Maximum plasma free catechin concentrations [1, 10]: 33.9 ± 11.0 ng/mL
- Maximum plasma free catechin concentrations [1, 11]: 383 ± 176 ng/mL
- Maximum plasma free catechin concentrations [1, 12]: 112.9 ± 88.2 ng/mL
- urinary total catechin levels [3]: very low or undetectable
- form mostly present in plasma [2]: free form
Structure (SMILES): O=C(O[C@@H]1Cc2c(O)cc(O)cc2O[C@@H]1c1ccc(O)c(O)c1)c1cc(O)c(O)c(O)c1 [ECG, epicatechin gallate]

Structure (SMILES): Oc1cc(O)c2c(c1)O[C@H](c1cc(O)c(O)c(O)c1)[C@H](O)C2 [EGC, epigallocatechin]
- form mostly present in plasma [4]: conjugated forms

- AUC of free EGCG [1, 13]: 685.53 ± 394.33^2 min · μg/ml
- CL/F of free EGCG [1, 13]: 2.37 ± 1.32^2 L/min
- Cmax of free EGCG [1, 13]: 3371.6 ± 1651.2^2 ng/ml
- Tmax of free EGCG [1, 13]: 90.60 ± 28.37^3 min
- t1/2 of free EGCG [1, 13]: 228.4 ± 75.3 min
- AUC of free EGCG [1, 14]: 299.40 ± 285.86^2 min · μg/ml
- CL/F of free EGCG [1, 14]: 7.39 ± 4.86 L/min
- Cmax of free EGCG [1, 14]: 923.6 ± 755.3 ng/mL
- Tmax of free EGCG [1, 14]: 175.10 ± 74.58 min
- t1/2 of free EGCG [1, 14]: 254.9 ± 59.9^4 min
- CL/F of free EGCG [1, 15]: 3.64 ± 1.55^2 L/min
- Tmax of free EGCG [1, 15]: 93.90 ± 58.99^3 min
- t1/2 of free EGCG [1, 15]: 170.5 ± 104.6 min
- CL/F of free EGCG ([1]; oral Polyphenon E 400 mg, Fed): 14.53 ± 7.84 L/min
- Cmax of free EGCG ([1]; oral Polyphenon E 400 mg, Fed): 141.8 ± 89.1 ng/mL
- Tmax of free EGCG ([1]; oral Polyphenon E 400 mg, Fed): 122.90 ± 83.70 min
- t1/2 of free EGCG ([1]; oral Polyphenon E 400 mg, Fed): 145.2 ± 129.1 min
- CL/F of free EGCG [1, 16]: 4.80 ± 2.69^2 L/min
- Tmax of free EGCG [1, 16]: 83.30 ± 31.04^3 min
- t1/2 of free EGCG [1, 16]: 156.5 ± 77.5 min
- AUC of free EGCG ([1]; oral Polyphenon E 800 mg, Fed): 90.89 ± 37.39 µg·min/mL
- CL/F of free EGCG ([1]; oral Polyphenon E 800 mg, Fed): 11.63 ± 9.25 L/min
- Cmax of free EGCG ([1]; oral Polyphenon E 800 mg, Fed): 294.0 ± 113.5 ng/mL
- Tmax of free EGCG ([1]; oral Polyphenon E 800 mg, Fed): 154.90 ± 78.31 min
- t1/2 of free EGCG ([1]; oral Polyphenon E 800 mg, Fed): 220.9 ± 209.3 min
- EGCG AUC ([1]; with food): 299.40 ± 285.86 µg·min/mL
- EGCG Cmax ([1]; with food): 923.6 ± 755.3 ng/mL
- EGCG AUC ([1]; without food): 685.53 ± 394.33 µg·min/mL
- EGCG Cmax ([1]; without food): 3371.6 ± 1651.2 ng/mL
- Maximum plasma free catechin concentrations [1, 7]: 799 ± 573 ng/mL
- Maximum plasma free catechin concentrations [1, 8]: 141.8 ± 89.1 ng/mL
- Maximum plasma free catechin concentrations [1, 9]: 1522.4 ± 1357.8^3 ng/ml
- Maximum plasma free catechin concentrations [1, 10]: 294.0 ± 113.5 ng/mL
- Maximum plasma free catechin concentrations [1, 11]: 3371.6 ± 1651.2^3 ng/ml
- Maximum plasma free catechin concentrations [1, 12]: 923.6 ± 755.3 ng/mL
- urinary total catechin levels [3]: very low or undetectable
- form mostly present in plasma [2]: free form
- Maximum plasma total catechin concentrations [2, 7]: 754.9 ± 399.9^3 ng/ml
- Maximum plasma total catechin concentrations [2, 8]: 174.4 ± 80.6 ng/mL
- Maximum plasma total catechin concentrations [2, 9]: 1622.7 ± 1501.4^3 ng/ml
- Maximum plasma total catechin concentrations [2, 10]: 360.1 ± 136.9 ng/mL
- Maximum plasma total catechin concentrations [2, 11]: 3988.4 ± 2068.2^3 ng/ml
- Maximum plasma total catechin concentrations [2, 12]: 871.9 ± 625.3 ng/mL
Structure (SMILES): O=C(O[C@@H]1Cc2c(O)cc(O)cc2O[C@@H]1c1cc(O)c(O)c(O)c1)c1cc(O)c(O)c(O)c1 [EGCG, epigallocatechin gallate]
- AUC of free EGCG [1, 15]: 126.96±47.02 min · μg/ml and 126.96 ± 47.02^2 min · μg/ml
- Cmax of free EGCG [1, 15]: 798.7±573.1 ng/ml and 798.7 ± 573.1^2 ng/ml
- AUC of free EGCG ([1]; oral Polyphenon E 400 mg, Fed): 36.70±24.66 min · μg/ml and 36.70 ± 24.66^1 min · μg/ml
- AUC of free EGCG [1, 16]: 254.48±214.21 min · μg/ml and 254.48 ± 214.21^2 min · μg/ml
- Cmax of free EGCG [1, 16]: 1522.4±1357.8 ng/ml and 1522.4 ± 1357.8^2 ng/ml
- oral dose available in the systemic blood [5]: less than 2%
- oral bioavailability [6]: < 13%
